Values quoted from earlier work as cited in PMC11949389 (Polish Journal of Microbiology, 2025).
Values after ≈ are worked out from the molar mass of the structure shown. Read-outs that look alike come from different tables or passages of the source.

Assays:
[1] = tested on: Methicillin-resistant Staphylococcus aureus; conditions: for Mechanisms of action: Methicillin-resistant Staphylococcus aureus
[2] = tested on: Staphylococcus aureus
[3] = tested on: Acinetobacter baumannii; conditions: combined with ciprofloxacin, ref Aleksic Sabo et al. (2021)
[4] = tested on: Candida krusei
[5] = tested on: Mupirocin-resistant Staphylococcus aureus; conditions: ref Kwiatkowski et al. 2019
[6] = tested on: Candida glabrata; conditions: Candida glabrata; ref Sharifzadeh et al. 2019; Iraji et al. 2020; Biernasiuk et al. 2022; Stringaro et al. 2022
[7] = tested on: Candida albicans; conditions: ref Shaban et al. 2020
[8] = tested on: Carbapenem-resistant Klebsiella pneumoniae (CRKP); conditions: ref Qian et al. 2020
[9] = tested on: Candida auris; conditions: Candida auris; ref Shaban et al. 2020
[10] = tested on: Staphylococcus aureus; remark: listed apart in the source
[11] = tested on: Staphylococcus sp.; conditions: ref Caballero Gómez et al. 2022
[12] = tested on: Vibrio anguillarum; conditions: ref Rossi et al. 2021
[13] = tested on: Streptococcus mutans; conditions: ref Jafri et al. (2019)
[14] = tested on: Pseudomonas sp.; conditions: ref Caballero Gómez et al. 2022
[15] = tested on: Candida tropicalis; conditions: with voriconazole, C. tropicalis isolates; ref Sharifzadeh and Shokri (2021)
[16] = tested on: Singapore grouper iridovirus (SGIV); conditions: ref Wang et al. (2024)
[17] = tested on: Candida auris; conditions: ref Shaban et al. 2020
[18] = tested on: Acinetobacter baumannii; conditions: ref Choudhary et al. 2022
[19] = tested on: Vibrio anguillarum, and Vibrio harveyi; conditions: ref Rossi et al. (2021)
[20] = tested on: Enterococcus sp.; conditions: ref Caballero Gómez et al. 2022
[21] = tested on: carbapenem-resistant Klebsiella pneumoniae (CRKP) strains; conditions: CRKP; ref Qian et al. 2020
[22] = tested on: Candida albicans
[23] = tested on: Mupirocin-susceptible Staphylococcus aureus; conditions: ref Kwiatkowski et al. 2019
[24] = tested on: Vibrio harveyi; conditions: ref Rossi et al. 2021

## C=CCc1ccc(O)c(OC)c1 [Eugenol]
[1]; MIC or 2 × MIC concentrations, established MRSA biofilms, ref El-Far et al. (2021)
  biofilm eradication: effectively eradicated established MRSA biofilms
[1]; ref Buru et al. 2022
  Mechanisms of action: • Downregulation of luxS gene • Inhibition of biofilm production • Enhancement of secondary metabolites • Upregulation of argC protein
[1]; ref El-Far et al. 2021
  Mechanisms of action: • Downregulation of biofilm-related genes (sarA, icaA, icaD) • Reduction of polysaccharide accumulation and cell adhesion
[2]; ref Macêdo et al. 2022
  Mechanisms of action: • Inhibition of efflux pump
[2]; ref Mastoor et al. 2022
  Mechanisms of action: • Gene expression reduction linked to intracellular adhesion
[2]; ref Muniz et al. 2021
  Mechanisms of action: • Inhibition of norA efflux pump
[3]
  FICI: 0.25–0.32
[4]; Candida krusei, ref Sharifzadeh et al. 2019, Iraji et al. 2020, Biernasiuk et al. 2022, Stringaro et al. 2022
  MIC/Sensitivity: 250 to 1000 µg/mL
[4]; with voriconazole, C. krusei isolates, ref Sharifzadeh and Shokri (2021)
  FICI: 0.19–0.63
[5]
  MIC/Sensitivity: 8340 µg/mL (≈ 50.8 mM)
[6]
  MIC/Sensitivity: 1000 to 2000 µg/mL
[7]
  Mechanisms of action: • Reduced proteinase production
[8]
  Mechanisms of action: • Disruption of cell membrane • Reduction in intracellular pH and ATP levels • Cell membrane hyperpolarization • Downregulation of biofilm-related genes (pgaA, luxS, wbbM, wzm) • Upregulation of mrkA gene
[9]
  MIC/Sensitivity: 625 µg/mL (≈ 3.81 mM)
[10]; S. aureus, ref Sharma et al. (2023)
  MIC: 500–1,000 μg/ml
[10]; Staphylococcus aureus, ref Kwiatkowski et al. 2020, Sayout et al. 2020, Sousa Silveira et al. 2020, Macêdo et al. 2022, Noumi et al. 2023, Sharma et al. 2023
  MIC/Sensitivity: 24 to 11100 µg/mL
[11]
  MIC/Sensitivity: 300 to 400 µg/mL
[12]
  MIC/Sensitivity: 308696 µg/mL (≈ 1880 mM)
[13]
  planktonic MIC: 200 µg/mL
[14]
  MIC/Sensitivity: 300 to 400 µg/mL
[15]
  FICI: 0.25–0.88
[16]
  optimal concentration for inhibiting infection: 100 µM
[17]
  Mechanisms of action: • Reduced proteinase production and host cell adherence
[18]
  Mechanisms of action: • Reduction in exopolysaccharide production • Disruption and inhibition of biofilm • Downregulation of csuE gene
[19]
  MIC: 940 to 7500 µM
[20]
  MIC/Sensitivity: 200 to 450 µg/mL
[21]
  MIC: 200 µg/mL (≈ 1.22 mM)
[22]; C. albicans, ref Jafri et al. (2019)
  planktonic MIC: 200 µg/mL
[22]; Candida albicans, ref Sharifzadeh et al. 2019, Iraji et al. 2020, Shaban et al. 2020, Stringaro et al. 2022, Biernasiuk et al. 2022
  MIC/Sensitivity: 500 to 2000 µg/mL
[23]
  MIC/Sensitivity: 2080 µg/mL (≈ 12.7 mM)
[24]
  MIC/Sensitivity: 308696 µg/mL (≈ 1880 mM)
